23 compounds from US9340549B2, “Oxazolidinone compounds and derivatives thereof” (priority 2012, dated 2016) can be followed below.

Read-outs that look alike come from different tables or passages of the source.

In assay [1] the target is 6×HIS-tankyrase 1 (1091-1325) (Homo sapiens (Human), UniProt O95271). The experiment in a line: biochemical. The assay is classed as biochemical. The conditions noted are these: […] enzyme, 400 nM NAD, 60 minutes at room temperature; read-out: TNKS1 IP IC50.
A further assay concerns Axin2 in SW480 cells. The experiment in a line: cells. The assay is classed as cell-based. The conditions noted are these: read-out: Axin2 384 IF EC50 IP. The procedure, abridged: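 SW480 cells treated 24 h at 37° C (0.5% DMSO final), fixed/permeabilized, immunostained for Axin2. ArrayScan imaging quantified ring-spot intensity; Axin2 accumulation expressed as percent of control, EC50 from concentration-response.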

Assay [2] relates to total β-catenin in SW480 colorectal cells. The assay is described as follows: cells. It counts as cell-based. Particulars: Homo sapiens. In a few lines: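 SW480 cells in growth medium (MEM alpha, 10% heat-inactivated FBS, 10 mM HEPES) treated with a 10-point, 3-fold dilution series of TNKS inhibitor for 40–48 h at 37 °C. Lysates run on an MSD sandwich immunoassay for total β-catenin, read by electrochemiluminescence.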

Setting [3] is: Homo sapiens, SW480, 24 h, SW480 cells, 24 hours.
[4] abbreviates: SW480 cells, 40 to 48 hours, top concentration 10 μM, read-out: SW480-Total β-Catenin IC50 IP.
Where [5] appears, read: SW480, read-out: SW480-Total β-Catenin IC50 IP.

Sequence of 6×HIS-tankyrase 1 (1091-1325) (O95271 1091-1325): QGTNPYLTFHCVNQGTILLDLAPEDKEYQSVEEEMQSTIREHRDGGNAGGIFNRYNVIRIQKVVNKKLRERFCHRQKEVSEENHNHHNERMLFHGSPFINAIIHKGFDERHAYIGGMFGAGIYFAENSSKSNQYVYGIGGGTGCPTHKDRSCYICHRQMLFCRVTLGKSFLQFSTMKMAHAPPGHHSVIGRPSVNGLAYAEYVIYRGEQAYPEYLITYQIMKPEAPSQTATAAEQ

Usually IC50 stands for the concentration that gives 50% inhibition. A word on the EC50: it is the concentration giving half of the maximal effect. As to `COc1ccc([C@@H]2N(c3ccc(C(=O)Nc4cccc5cccnc45)cc3)C(=O)OC2(C)C)cc1` [Example 113, (S)-4-(4-(4-methoxyphenyl)-5,5-dimethyl-2-oxooxazolidin-3-yl)-N-(quinolin-8-yl)benzamide], the values for the half-maximal inhibitory concentration (IC50) in assay [1] and in assay [2] (setting [4]) were 130 nM and 2110 nM, respectively. In the assay with Axin2 in SW480 cells (setting [3]), the concentration for a half-maximal effect (EC50) was 5220 nM.

Turning to `C[C@@]1(c2ccccc2)CN([C@H]2CC[C@H](n3c(=O)[nH]c4cnccc43)CC2)C(=O)O1` (single isomer, unassigned) [Example 90], the half-maximal inhibitory concentration (IC50) in assay [1] is 772 nM; in assay [2] (setting [4]) it was more than 10000 nM. Besides, the concentration for a half-maximal effect (EC50) with Axin2 in SW480 cells (setting [3]) was more than 25000 nM.

For the compound `CC1(C)OC(=O)N([C@H]2CC[C@H](n3c(=O)[nH]c4cnccc43)CC2)[C@H]1c1ccc(F)cc1` [Example 55, (S)-4-(4-Fluorophenyl)-5,5-dimethyl-3-((1r,4S)-4-(2-oxo-2,3-dihydro-1H-imidazo[4,5-c]pyridin-1-yl)cyclohexyl)oxazolidin-2-one], the concentration for half-maximal inhibition (IC50) turned out to be 2.95 nM in assay [1] and 145 nM in assay [2] (setting [4]). The EC50 in the assay on Axin2 in SW480 cells (setting [3]) came out at 100 nM.

As for `CC1(C)OC(=O)N(c2ccc(C(=O)Nc3cccc4cccnc34)cc2)C1c1ccccc1F` (stereo not shown) [Example 42, (R+S) 4-(4-(2-fluorophenyl)-5,5-dimethyl-2-oxooxazolidin-3-yl)-N-(quinolin-8-yl)benzamide], the figures for the IC50 in assay [1] and in assay [2] (setting [4]) were 263 nM and 4870 nM, respectively. Moreover, the concentration for a half-maximal effect (EC50) in the assay with Axin2 in SW480 cells (setting [3]) amounted to 9400 nM.

For the compound `CC1(C)OC(=O)N(c2ccc(-n3nnc4ccccc43)cc2)[C@H]1c1ccccc1` [Example 69, (S)-3-(4-(1H-benzo[d][1,2,3]triazol-1-yl)phenyl)-5,5-dimethyl-4-phenyloxazolidin-2-one], the IC50 in assay [1] is 2100 nM; in assay [2] (setting [4]) it was more than 10000 nM. Besides, the EC50 in the assay with Axin2 in SW480 cells (setting [3]) is more than 25000 nM.

Take `CC1(C)OC(=O)N(c2ccc(-c3nnc4cc(-c5cncnc5)ccn34)cc2)[C@H]1c1ccccc1` [Example 66, (S)-5,5-dimethyl-4-phenyl-3-(4-(7-(pyrimidin-5-yl)-[1,2,4]triazolo[4,3-a]pyridin-3-yl)phenyl)oxazolidin-2-one]: the values for the half-inhibitory concentration (IC50) in assay [1] and in assay [2] (setting [4]) were 1970 nM and 9270 nM, respectively. Besides, in the assay with Axin2 in SW480 cells (setting [3]), the concentration giving a half-maximal response (EC50) is more than 25000 nM.

On to `CC1(c2ccccc2)CN([C@H]2CC[C@@H](n3c(=O)[nH]c4cc(C#N)ccc43)CC2)C(=O)O1` (stereo partly drawn) [Example 92, 1-((1R,4r)-4-((R+S)-5-methyl-2-oxo-5-phenyloxazolidin-3-yl)cyclohexyl)-2-oxo-2,3-dihydro-1H-benzo[d]imidazole-5-carbonitrile], for which the concentration for half-maximal inhibition (IC50) is 4.9 nM in assay [1] and 177 nM in assay [2] (setting [4]). Besides, the EC50 in the assay on Axin2 in SW480 cells (setting [3]) turned out to be 183 nM.

On to `CC1(C)OC(=O)N(c2ccc(-c3cnc(N)nc3)cc2)[C@H]1c1ccccc1` [Example 70, (S)-3-(4-(2-aminopyrimidin-5-yl)phenyl)-5,5-dimethyl-4-phenyloxazolidin-2-one], for which the values for the 50% inhibitory concentration (IC50) in assay [1] and in assay [2] (setting [4]) were 1490 nM and more than 10000 nM, respectively. In addition, the EC50 in the assay on Axin2 in SW480 cells (setting [3]) was more than 25000 nM.

With `CC1(C)OC(=O)N(c2ccc(-c3cc(-c4ncccn4)cnc3F)cc2)[C@H]1c1ccccc1` [Example 3, (S)-3-(4-(2-Fluoro-5-(pyrimidin-2-yl)pyridin-3-yl)phenyl)-5,5-dimethyl-4-phenyloxazolidin-2-one], the IC50 was found to be 378 nM in assay [1] and 1750 nM in assay [2] (setting [4]). Moreover, in the assay on Axin2 in SW480 cells (setting [3]), the EC50 was more than 25000 nM.

Take `CC1(C)OC(=O)N(c2ccc(-c3cc(-c4nccc(C#N)n4)c[nH]c3=O)cc2)[C@H]1c1ccccc1` [Example 120, (S)-2-(5-(4-(5,5-dimethyl-2-oxo-4-phenyloxazolidin-3-yl)phenyl)-6-oxo-1,6-dihydropyridin-3-yl)pyrimidine-4-carbonitrile]: the half-maximal inhibitory concentration (IC50) was determined as 75.8 nM in assay [1] and 2360 nM in assay [2] (setting [4]). Further, in the assay on Axin2 in SW480 cells (setting [3]), the EC50 turned out to be 825 nM.

For the compound `CC1(C)OC(=O)N(c2ccc(-c3cc4ccncc4[nH]c3=O)cc2)[C@H]1c1ccccc1` [Example 88, (S)-5,5-dimethyl-3-(4-(2-oxo-1,2-dihydro-1,7-naphthyridin-3-yl)phenyl)-4-phenyloxazolidin-2-one], the values for the IC50 in assay [1] and in assay [2] (setting [4]) were 11.8 nM and 473 nM, respectively. In addition, the concentration giving a half-maximal response (EC50) with Axin2 in SW480 cells (setting [3]) was determined as 285 nM.

For `CC1(C)OC(=O)N(c2ccc(-c3cc(-c4ccccn4)cnn3)cc2)[C@H]1c1ccccc1` [Example 40, (S)-5,5-dimethyl-4-phenyl-3-(4-(5-(pyridin-2-yl)pyridazin-3-yl)phenyl)oxazolidin-2-one], the IC50 was found to be 621 nM in assay [1] and 9470 nM in assay [2] (setting [5]). The EC50 in the assay with Axin2 in SW480 cells (Homo sapiens, SW480, 24 h) was more than 25000 nM.

As for `CC1(C)OC(=O)N(c2ccc(-n3c(=O)[nH]c4cnccc43)cc2)[C@H]1c1ccccc1` [Example 16, (S)-5,5-dimethyl-3-(4-(2-oxo-2,3-dihydro-1H-imidazo[4,5-c]pyridin-1-yl)phenyl)-4-phenyloxazolidin-2-one], the concentration for half-maximal inhibition (IC50) in assay [1] turned out to be 114 nM; in assay [2] (setting [4]), 2540 nM. In addition, in the assay with Axin2 in SW480 cells (setting [3]), the EC50 was determined as 8190 nM.

In the case of `CC1(C)OC(=O)N(c2ccc(-c3ccc[nH]c3=O)cc2)[C@H]1c1ccccc1` [Example 119, (S)-5,5-dimethyl-3-(4-(2-oxo-1,2-dihydropyridin-3-yl)phenyl)-4-phenyloxazolidin-2-one], the figures for the 50% inhibitory concentration (IC50) in assay [1] and in assay [2] (setting [4]) were 1350 nM and more than 10000 nM, respectively. Further, in the assay with Axin2 in SW480 cells (setting [3]), the EC50 was more than 25000 nM.

With `CC1(C)OC(=O)N([C@H]2CC[C@H](n3c(=O)[nH]c4cc(C#N)ccc43)CC2)[C@H]1c1ccc(F)cc1` [Example 61, 1-((1S,4r)-4-((S)-4-(4-fluorophenyl)-5,5-dimethyl-2-oxooxazolidin-3-yl)cyclohexyl)-2-oxo-2,3-dihydro-1H-benzo[d]imidazole-5-carbonitrile], the half-maximal inhibitory concentration (IC50) in assay [1] was found to be 3.42 nM; in assay [2] (setting [4]), 148 nM. Besides, the half-maximal effective concentration (EC50) with Axin2 in SW480 cells (setting [3]) is 238 nM.

For `CC1(C)OC(=O)N([C@H]2CC[C@H](c3cnc4[nH]c(=O)n(-c5ncccn5)c4c3)CC2)[C@H]1c1ccccc1` [Example 98, (S)-5,5-dimethyl-3-((1r,4S)-4-(2-oxo-1-(pyrimidin-2-yl)-2,3-dihydro-1H-imidazo[4,5-b]pyridin-6-yl)cyclohexyl)-4-phenyloxazolidin-2-one], the 50% inhibitory concentration (IC50) in assay [1] is 0.316 nM; in assay [2] (setting [4]), 48.2 nM. Further, the EC50 in the assay with Axin2 in SW480 cells (setting [3]) stood at 35.7 nM.

As to `CC1(C)OC(=O)N(c2ccc(-n3c(=O)[nH]c4ccccc43)nc2)[C@H]1c1ccccc1` [Example 22, (S)-5,5-dimethyl-3-(6-(2-oxo-2,3-dihydro-1H-benzo[d]imidazol-1-yl)pyridin-3-yl)-4-phenyloxazolidin-2-one], the half-maximal inhibitory concentration (IC50) in assay [1] is 1430 nM; in assay [2] (setting [4]), more than 10000 nM. Besides, the EC50 with Axin2 in SW480 cells (setting [3]) is more than 25000 nM.

Consider `CC1(C)OC(=O)N(c2ccc(-c3cc(-c4cccnc4)c[nH]c3=O)cc2)[C@H]1c1ccccc1` [Example 118, (S)-5,5-dimethyl-3-(4-(6-oxo-1,6-dihydro-[3,3′-bipyridin]-5-yl)phenyl)-4-phenyloxazolidin-2-one], for which the values for the IC50 in assay [1] and in assay [2] (setting [4]) were 150 nM and more than 10000 nM, respectively. In addition, the half-maximal effective concentration (EC50) with Axin2 in SW480 cells (setting [3]) is more than 25000 nM.

For the compound `CC1(C)OC(=O)N([C@H]2CC[C@H](N3C(=O)C(F)(F)c4ccccc43)CC2)[C@H]1c1ccccc1` [Example 48, (S)-3-((1s,4R)-4-(3,3-difluoro-2-oxoindolin-1-yl)cyclohexyl)-5,5-dimethyl-4-phenyloxazolidin-2-one], the half-inhibitory concentration (IC50) is 617 nM in assay [1] and more than 10000 nM in assay [2] (setting [4]). Moreover, the concentration for a half-maximal effect (EC50) in the assay with Axin2 in SW480 cells (setting [3]) was more than 25000 nM.

Regarding `CC1(C)OC(=O)N(c2ccc(-n3cc(-c4ccccc4)[nH]c3=O)cc2)[C@H]1c1ccccc1` [Example 80, (4S)-5,5-dimethyl-3-(4-(2-oxo-4-phenyl-2,3-dihydro-1H-imidazol-1-yl)phenyl)-4-phenyl-1,3-oxazolidin-2-one], the IC50 amounted to 3080 nM in assay [1] and 1360 nM in assay [2] (setting [4]). Also, the EC50 with Axin2 in SW480 cells (setting [3]) is more than 12500 nM; in the assay with Axin2 in SW480 cells (SW480 cells, 24 hours) it was more than 25000 nM.

Turning to `CC1(C)OC(=O)N(C2CC=C(c3cnc(N)c(-c4ncccn4)c3)CC2)C1c1ccccc1` (stereo not shown) [Example 131, 3-(4-(6-amino-5-(pyrimidin-2-yl)pyridin-3-yl)cyclohex-3-en-1-yl)-5,5-dimethyl-4-phenyloxazolidin-2-one], the figures for the IC50 in assay [1] and in assay [2] (setting [4]) were 16 nM and 362 nM, respectively. Moreover, the 50% effective concentration (EC50) in the assay with Axin2 in SW480 cells (setting [3]) turned out to be 1030 nM.

On to `CC1(C)OC(=O)N([C@H]2CC[C@H](c3nnc(-c4ccccc4)o3)CC2)[C@@H]1c1ccccc1` [Example 86, (R)-5,5-dimethyl-4-phenyl-3-((1r,4R)-4-(5-phenyl-1,3,4-oxadiazol-2-yl)cyclohexyl)oxazolidin-2-one], for which the IC50 in assay [1] was 32.2 nM; in assay [2] (setting [4]) it was more than 10000 nM. In the assay on Axin2 in SW480 cells (setting [3]), the concentration giving a half-maximal response (EC50) came to 1660 nM.

On to `CC1(C)OC(=O)N([C@H]2CC[C@H](c3cc(-c4ncccn4)c[nH]c3=O)CC2)[C@@H]1c1ccccc1` [Example 82, 3-(trans-4-((4R)-5,5-dimethyl-2-oxo-4-phenyl-1,3-oxazolidin-3-yl)cyclohexyl)-5-(2-pyrimidinyl)-2(1H)-pyridinone], for which the half-maximal inhibitory concentration (IC50) was determined as 195 nM in assay [1] and 1340 nM in assay [2] (setting [5]). The EC50 in the assay on Axin2 in SW480 cells (Homo sapiens, SW480, 24 h) was determined as 7130 nM.
